Test [1] addresses Diacylglycerol kinase alpha (Homo sapiens, UniProt P23743). Nature of the test: In Vitro DGK Inhibition Assay.
Description: (§1) The DGKα (Full Length and Near Full Length) ADP Glo assays were performed using an extruded liposome prep at either 5% DAG or 10% DAG. The Enzymatic reactions were carried out in 50 mM MOPS pH 7.5, 100 mM NaCl, 10 mM MgCl2, 1 μM CaCl2, and 1 mM DTT (assay buffer). The lipid substrate concentrations were 1.9 mM PS, either 0.25 mM DAG (5% liposome prep) or 0.5 mM DAG (10% liposome prep), and 2.7 mM PC for the extruded liposome reactions. […] A 5 mL enzyme/substrate (substrate being the 5× or 10× liposome preparation) solution at 2× final reaction concentrations was prepared by combining 5 ml of the extruded liposome preparation with 10 nM (2× final) DGKα(Near Full Length) or DGKα(Full Length) prepared as described below) and incubated at room temperature for 10 minutes. Next, 1 μL of the 2× enzyme/substrate solution was added to wells containing the test compound and reactions were initiated with the addition of 1 μL 300 uM ATP. Substrate only was added to DMSO only wells for background measurements. The reactions were allowed to proceed for 1 hr, after which 2 μL Glo Reagent (Promega V9101) was added and incubated for 40 minutes. Next, 4 μL Kinase Detection Reagent was added and incubated for 30 minutes. Luminescence was recorded using an EnVision microplate reader. […] The compounds were evaluated at 11 concentrations to determine IC50.
Test [2] addresses T1, Diacylglycerol kinase alpha [9-727] (Homo sapiens, UniProt P23743).
T1 construct: 9-727
Description: In Vitro DGK Inhibition Assay.
Description: as §1

T1 sequence (P23743 whole entry): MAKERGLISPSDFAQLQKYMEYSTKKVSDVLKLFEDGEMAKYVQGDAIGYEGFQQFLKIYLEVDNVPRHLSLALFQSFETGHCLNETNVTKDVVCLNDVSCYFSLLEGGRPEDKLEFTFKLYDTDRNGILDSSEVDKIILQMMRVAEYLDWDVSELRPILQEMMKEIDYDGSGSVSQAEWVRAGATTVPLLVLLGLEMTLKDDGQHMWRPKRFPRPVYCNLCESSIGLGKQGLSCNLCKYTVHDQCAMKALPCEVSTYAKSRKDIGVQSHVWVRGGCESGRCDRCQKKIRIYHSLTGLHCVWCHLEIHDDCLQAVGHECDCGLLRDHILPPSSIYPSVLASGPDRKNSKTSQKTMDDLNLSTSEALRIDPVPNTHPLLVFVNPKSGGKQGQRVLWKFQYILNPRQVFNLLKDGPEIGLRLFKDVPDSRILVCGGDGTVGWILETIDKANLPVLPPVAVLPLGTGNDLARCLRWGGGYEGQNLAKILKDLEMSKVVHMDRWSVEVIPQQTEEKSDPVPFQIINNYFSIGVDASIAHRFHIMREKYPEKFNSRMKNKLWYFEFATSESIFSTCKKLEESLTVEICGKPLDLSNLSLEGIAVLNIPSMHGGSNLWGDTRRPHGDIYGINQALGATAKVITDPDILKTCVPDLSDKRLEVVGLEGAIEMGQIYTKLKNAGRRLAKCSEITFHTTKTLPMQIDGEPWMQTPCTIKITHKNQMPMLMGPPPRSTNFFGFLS
Sequence of Diacylglycerol kinase alpha (P23743 whole entry): as above

The term IC50 denotes the midpoint of a concentration-inhibition curve. For the compound `CC1CCC(N(C)Cc2nnnn2-c2cccc([N+](=O)[O-])c2)CC1` (centres undefined) [US20260049068, Example 2], the IC50 was 2.7 µM in test [1] and 1.2 µM in test [2].

With `C=CCN(Cc1nnnn1-c1ccc(Cl)c(C#N)n1)C1CCCCC1` [US20260049068, Example 17], the concentration for half-maximal inhibition (IC50) in test [1] was found to be 1.2 µM; in test [2], 1.6 µM.

On to `CN(Cc1nnnn1-c1cc(C#N)cc([N+](=O)[O-])c1)C1CCCCC1` [US20260049068, Example 27], for which, in test [2], the IC50 stood at 0.48 µM.

On to `CN(Cc1nnnn1-c1ccc(Cl)c([N+](=O)[O-])c1)C1CCCCC1` [US20260049068, Example 28], for which the IC50 in test [1] came out at 0.06 µM; in test [2], 0.12 µM.

For `CN(Cc1nnnn1-c1cccc([N+](=O)[O-])c1)C1CCOCC1` [US20260049068, Example 38], in test [1], the IC50 turned out to be 15 µM.

Consider `CN(Cc1nnnn1-c1cccc([N+](=O)[O-])c1)C1CCN(C(=O)OC(C)(C)C)C1` (centres undefined) [US20260049068, Example 39], for which, in test [1], the IC50 was determined as 35 µM.

On to `CN(Cc1nnnn1-c1cccc([N+](=O)[O-])c1)C1CCOC1` (centres undefined) [US20260049068, Example 40], for which the concentration for half-maximal inhibition (IC50) in test [1] is 55 µM.

On to `CC(C)CN(C)Cc1nnnn1-c1cccc([N+](=O)[O-])c1` [US20260049068, Example 42], for which the IC50 in test [1] turned out to be 32 µM.

On to `CN(Cc1nnnn1-c1cccc([N+](=O)[O-])c1)C1CC1` [US20260049068, Example 44], for which, in test [1], the half-maximal inhibitory concentration (IC50) is 180 µM.

Regarding `N#Cc1nc(-n2nnnc2CN(CC(O)c2ccccc2)C2CCCCC2)ccc1Cl` (centres undefined) [US20260049068, Example 57], half-maximal inhibition in test [1] (IC50) was put at 120 µM.

In test [1], `N#Cc1nc(-n2nnnc2CN(Cc2ccccc2)[C@@H]2CCCC[C@H]2O)ccc1Cl` [US20260049068, Example 58] displayed a concentration for half-maximal inhibition (IC50) of 60 µM.

(Values after BindingDB's records for patent US20260049068 (Bristol Myers Squibb, 2026).)
